In brackets after ≈: the same amount, converted by molar mass. Each block holds one compound with its values, some of them ahead of it.
Key:
Test in all cases: ≥ marks a high value that may be exact or a test limit, other limits are often not marked, values filed in µg/mL are converted to µM
[1] = tested on: Bacillus subtilis ATCC 6633
[2] = tested on: Enterococcus faecium CMCC 1.2136
[3] = tested on: Escherichia coli CVCC 1515
[4] = tested on: Escherichia coli CVCC 195
[5] = tested on: Escherichia coli O157:H7 CICC 21530
[6] = tested on: Pseudomonas aeruginosa CICC 10419
[7] = tested on: Pseudomonas aeruginosa CICC 21630
[8] = tested on: Salmonella enterica subsp. enterica serovar Choleraesuis CVCC 503
[9] = tested on: Salmonella enterica subsp. enterica serovar Enteritidis CVCC 3377
[10] = tested on: Salmonella enterica subsp. enterica serovar Pullorum CVCC 1789
[11] = tested on: Salmonella enterica subsp. enterica serovar Pullorum CVCC 1802
[12] = tested on: Salmonella enterica subsp. enterica serovar Typhimurium ATCC 14028
[13] = tested on: Staphylococcus aureus ATCC 25923
[14] = tested on: Staphylococcus aureus ATCC 43300
[15] = tested on: Streptococcus suis CVCC 606
[16] = tested on: Bacillus subtilis VKM B-501
[17] = tested on: Escherichia coli C600
[18] = tested on: Staphylococcus aureus 209P
[19] = tested on: Bacillus cereus ATCC 11778
[20] = tested on: Bacillus thuringiensis ATCC 10792
[21] = tested on: Enterococcus faecium CCT 5079
[22] = tested on: Enterococcus hirae ATCC 10541
[23] = tested on: Escherichia coli ATCC 11775
[24] = tested on: Escherichia coli ATCC 25922
[25] = tested on: Escherichia coli CCT 1457
[26] = tested on: Micrococcus luteus ATCC 4698
[27] = tested on: Pseudomonas aeruginosa ATCC 13388
[28] = tested on: Pseudomonas aeruginosa ATCC 15422
[29] = tested on: Salmonella enterica subsp. enterica serovar Choleraesuis ATCC 10708
[30] = tested on: Staphylococcus aureus CCT 2580
[31] = tested on: Staphylococcus aureus CCT 6538
[32] = tested on: Staphylococcus epidermidis ATCC 12228
[33] = tested on: Streptococcus mutans AU159
[34] = tested on: Streptococcus pneumoniae ATCC 11733
[35] = tested on: Escherichia coli BL21(DE3)
[36] = tested on: Pseudomonas aeruginosa
[37] = tested on: Pseudomonas aeruginosa ATCC 27853
[38] = tested on: Pseudomonas aeruginosa ATCC 9027
[39] = tested on: Staphylococcus aureus ATCC 19636
[40] = tested on: Staphylococcus aureus ATCC 29213
[41] = tested on: Escherichia coli BW25113 ΔsbmA
[42] = tested on: Escherichia coli BW25113

MIC [1]: 1.66 µM (≈ 4 µg/mL)
MIC [2]: 6.63 µM (≈ 16 µg/mL)
MIC [3]: 6.63 µM (≈ 16 µg/mL)
MIC [4]: 13.3 µM (≈ 32 µg/mL)
MIC [5]: 6.63 µM (≈ 16 µg/mL)
MIC [6]: ≥ 53 µM
MIC [7]: ≥ 53 µM
MIC [9]: 0.414 µM (≈ 1 µg/mL)
MIC [10]: ≥ 53 µM
MIC [11]: 13.3 µM (≈ 32 µg/mL)
MIC [12]: > 26.5 µM
MIC [13]: 0.829 µM (≈ 2 µg/mL)
MIC [14]: > 26.5 µM
MIC [15]: ≥ 53 µM
SMILES: CC(C)[C@H](NC(=O)CNC(=O)[C@H](CC(N)=O)NC(=O)[C@H](CCCN=C(N)N)NC(=O)[C@H](Cc1ccc(O)cc1)NC(=O)[C@@H](NC(=O)[C@H](C)NC(=O)[C@@H](NC(=O)[C@H](CC(N)=O)NC(=O)[C@H](Cc1c[nH]c2ccccc12)NC(=O)[C@H](C)NC(=O)[C@H](Cc1ccccc1)NC(=O)CN)C(C)C)C(C)C)C(=O)N[C@@H](CCCN=C(N)N)C(=O)N[C@H](C(=O)N[C@@H](C)C(=O)N[C@@H](Cc1cnc[nH]1)C(=O)N[C@@H](CCCN=C(N)N)C(=O)N[C@@H](CCCN=C(N)N)C(=O)N[C@@H](C)C(=O)N[C@@H](CC(N)=O)C(=O)O)C(C)C [GFAWNVAVYRNGVRVAHRRAN]
MIC [8]: 26.5 µM (≈ 64 µg/mL)

MIC [16]: 0.7 µM (≈ 2.02 µg/mL)
MIC [17]: 6 µM (≈ 17.3 µg/mL)
MIC [18]: 18 µM (≈ 51.9 µg/mL)
SMILES: CC[C@H](C)[C@H](NC(=O)[C@H](C)NC(=O)[C@H](CCCCN)NC(=O)[C@H](CCCN=C(N)N)NC(=O)CNC(=O)[C@H](CCCCN)NC(=O)[C@H](CCCCN)NC(=O)[C@H](CCCCN)NC(=O)[C@@H](NC(=O)[C@H](CC(C)C)NC(=O)[C@H](CCCCN)NC(=O)CNC(=O)[C@H](Cc1ccccc1)NC(=O)[C@H](CC(C)C)NC(=O)CN)[C@@H](C)CC)C(=O)N[C@@H](CO)C(=O)N[C@@H](Cc1ccc(O)cc1)C(=O)N[C@@H](C)C(=O)N[C@H](C(=O)N[C@@H](CCCCN)C(=O)N[C@@H](CCCCN)C(=O)N[C@@H](C)C(=O)N[C@@H](CCCN=C(N)N)C(=O)NCC(=O)N[C@@H](CCCCN)C(=O)N[C@@H](Cc1cnc[nH]1)C(=O)O)C(C)C [GLFGKLIKKKGRKAISYAVKKARGKH]

Further lines, the compound ahead of its results:

SMILES: CC[C@H](C)[C@H](N)C(=O)N[C@@H](CC(N)=O)C(=O)N[C@@H](Cc1c[nH]c2ccccc12)C(=O)N[C@@H](CC(C)C)C(=O)N[C@@H](C)C(=O)N[C@H](C(=O)N[C@@H](C)C(=O)N[C@@H](C)C(=O)N[C@@H](CCCCN)C(=O)N[C@H](C(=O)N[C@@H](C)C(=O)NCC(=O)N[C@@H](CCSC)C(=O)N[C@@H](CC(C)C)C(N)=O)C(C)C)[C@@H](C)CC [INWLAIAAKVAGML]
MIC [19]: ≥ 85 µM
MIC [20]: ≥ 85 µM
MIC [21]: ≥ 170 µM
MIC [22]: ≥ 170 µM
MIC [23]: ≥ 340 µM
MIC [24]: 170 µM (≈ 250 µg/mL)
MIC [25]: ≥ 170 µM
MIC [26]: 10.6 µM (≈ 15.6 µg/mL)
MIC [27]: ≥ 340 µM
MIC [28]: ≥ 340 µM
MIC [29]: ≥ 340 µM
MIC [12]: 340 µM (≈ 500 µg/mL)
MIC [13]: 10.9 µM (≈ 16 µg/mL)
MIC [30]: 2.72 µM (≈ 4 µg/mL)
MIC [31]: 10.9 µM (≈ 16 µg/mL)
MIC [32]: 10.9 µM (≈ 16 µg/mL)
MIC [33]: ≥ 170 µM
MIC [34]: 0.68 µM (≈ 0.999 µg/mL)

SMILES: CC[C@H](C)[C@H](NC(=O)[C@@H]1CCCN1C(=O)[C@H](CC(C)C)NC(=O)[C@H](CC(C)C)NC(=O)[C@H](CCCCN)NC(=O)[C@@H](N)CCCCN)C(=O)N[C@H](C(=O)N[C@@H](CCCCN)C(=O)N[C@@H](CC(N)=O)C(=O)N[C@@H](CC(C)C)C(=O)N[C@@H](CC(C)C)C(=O)N[C@@H](CCCCN)C(=O)N[C@@H](CO)C(=O)N[C@@H](CC(C)C)C(=O)N[C@@H](CC(C)C)C(=O)O)C(C)C [KKLLPIVKNLLKSLL]
MIC [35]: 0.2 µM (≈ 0.344 µg/mL)
MIC [36]: 2.5 µM (≈ 4.3 µg/mL)
MIC [32]: 0.025 µM (≈ 0.043 µg/mL)

SMILES: CC(C)C[C@H](NC(=O)[C@H](Cc1c[nH]c2ccccc12)NC(=O)[C@H](CCCCN)NC(=O)[C@H](CC(C)C)NC(=O)[C@H](Cc1c[nH]c2ccccc12)NC(=O)[C@H](C)NC(=O)[C@H](CCCN=C(N)N)NC(=O)[C@H](Cc1c[nH]c2ccccc12)NC(=O)[C@H](CCCCN)NC(=O)[C@@H](N)CCCCN)C(=O)N[C@@H](C)C(=O)N[C@@H](CCCCN)C(=O)N[C@@H](CCCCN)C(=O)O [KKWRAWLKWLAKK]
MIC [24]: 1.78 µM (≈ 3.1 µg/mL)
MIC [37]: 0.918 µM (≈ 1.6 µg/mL)
MIC [38]: 1.78 µM (≈ 3.1 µg/mL)
MIC [39]: 0.918 µM (≈ 1.6 µg/mL)
MIC [13]: 7.17 µM (≈ 12.5 µg/mL)
MIC [40]: 7.17 µM (≈ 12.5 µg/mL)

SMILES: CC[C@H](C)[C@H](NC(=O)[C@@H]1CCCN1C(=O)[C@@H]1CCCN1C(=O)[C@H](CCCN=C(N)N)NC(=O)[C@H](Cc1ccccc1)NC(=O)[C@@H](N)CCCN=C(N)N)C(=O)N[C@@H](CCCN=C(N)N)C(=O)N[C@@H](CCCN=C(N)N)C(=O)N1CCC[C@H]1C(=O)N1CCC[C@H]1C(=O)N[C@H](C(=O)N[C@@H](CCCN=C(N)N)C(=O)N1CCC[C@H]1C(=O)N1CCC[C@H]1C(=O)N[C@@H](Cc1ccccc1)C(=O)N[C@@H](CCCN=C(N)N)C(=O)N1CCC[C@H]1C(=O)N1CCC[C@H]1C(=O)N[C@@H](Cc1ccccc1)C(=O)N[C@@H](CCCN=C(N)N)C(=O)N1CCC[C@H]1C(=O)N1CCC[C@H]1C(=O)N[C@H](C(=O)N[C@@H](CCCN=C(N)N)C(=O)N1CCC[C@H]1C(=O)O)C(C)C)[C@@H](C)CC [RFRPPIRRPPIRPPFRPPFRPPVRP]
MIC [41]: 8 µM (≈ 24.8 µg/mL)
MIC [42]: 1 µM (≈ 3.1 µg/mL)

— DBAASP
